{"source": "paper PMC12073449", "about": "“Development of a Mechanism of Action-Reflective Cell-Based Reporter Gene Assay for Measuring Bioactivities of Therapeutic Glucagon-like Peptide-2 Analogues” (Molecules, 2025)", "test_system": "HEK293-GLP-2R-Luc cells", "note": "Ends that are not written are not given here.", "data": [{"substance": "HGEGTFSSELATILDALAARDFINWLIATKITDKKKKKK-NH2 [glepaglutide]", "values": [{"measurement": "log2 (TD/Ctrl) TMEM54", "setting": "Qvalue 0.021231", "value": 1.072}, {"measurement": "log2 (TD/Ctrl) RYR1", "setting": "Qvalue 0.021465", "value": 1.055}, {"measurement": "log2 (TD/Ctrl) PHKG1", "setting": "Qvalue 0.021994", "value": 1.955}, {"measurement": "log2 (TD/Ctrl) KLF6", "setting": "Qvalue 0.022289", "value": 1.402}, {"measurement": "log2 (TD/Ctrl) LRRTM4", "setting": "Qvalue 0.022315", "value": "−1.285"}, {"measurement": "log2 (TD/Ctrl) PHOSPHO2", "setting": "Qvalue 0.023229", "value": "−1.059"}, {"measurement": "log2 (TD/Ctrl) MICOS10-NBL1", "setting": "Qvalue 0.023249", "value": 1.952}, {"measurement": "log2 (TD/Ctrl) PDE3A", "setting": "Qvalue 0.023634", "value": 1.882}, {"measurement": "log2 (TD/Ctrl) LARGE2", "setting": "Qvalue 0.023651", "value": 1.17}, {"measurement": "log2 (TD/Ctrl) HES7", "setting": "Qvalue 0.024442", "value": 1.525}, {"measurement": "log2 (TD/Ctrl) VSTM2B", "setting": "Qvalue 0.024619", "value": 1.668}, {"measurement": "log2 (TD/Ctrl) INSM1", "setting": "Qvalue 0.02493", "value": 1.259}, {"measurement": "log2 (TD/Ctrl) SIK1", "setting": "Qvalue 0.025061", "value": 1.255}, {"measurement": "log2 (TD/Ctrl) IQANK1", "setting": "Qvalue 0.02555", "value": "−1.07"}, {"measurement": "log2 (TD/Ctrl) TRABD2A", "setting": "Qvalue 0.026368", "value": 1.121}, {"measurement": "log2 (TD/Ctrl) RAB20", "setting": "Qvalue 0.026593", "value": 1.265}, {"measurement": "log2 (TD/Ctrl) ADAM8", "setting": "Qvalue 0.026923", "value": "−1.632"}, {"measurement": "log2 (TD/Ctrl) EGR2", "setting": "Qvalue 0.027245", "value": 1.924}, {"measurement": "log2 (TD/Ctrl) ACTRT3", "setting": "Qvalue 0.027976", "value": "−1.89"}, {"measurement": "log2 (TD/Ctrl) CILP2", "setting": "Qvalue 0.028089", "value": 1.014}, {"measurement": "log2 (TD/Ctrl) KCNJ4", "setting": "Qvalue 0.028153", "value": 1.521}, {"measurement": "log2 (TD/Ctrl) NGFR", "setting": "Qvalue 0.0305", "value": 1.083}, {"measurement": "log2 (TD/Ctrl) GPR146", "setting": "Qvalue 0.031918", "value": "−1.284"}, {"measurement": "log2 (TD/Ctrl) SLC2A9", "setting": "Qvalue 0.032594", "value": "−1.825"}, {"measurement": "log2 (TD/Ctrl) FIBIN", "setting": "Qvalue 0.032833", "value": "−1.931"}, {"measurement": "log2 (TD/Ctrl) INSC", "setting": "Qvalue 0.033388", "value": 1.775}, {"measurement": "log2 (TD/Ctrl) TRPM4", "setting": "Qvalue 0.034028", "value": 1.164}, {"measurement": "log2 (TD/Ctrl) TOR4A", "setting": "Qvalue 0.034573", "value": "−1.123"}, {"measurement": "log2 (TD/Ctrl) ANXA3", "setting": "Qvalue 0.034821", "value": 1.046}, {"measurement": "log2 (TD/Ctrl) F2RL2", "setting": "Qvalue 0.035979", "value": 2.195}, {"measurement": "log2 (TD/Ctrl) GFRA2", "setting": "Qvalue 0.036382", "value": 1.989}, {"measurement": "log2 (TD/Ctrl) CHD5", "setting": "Qvalue 0.036855", "value": 1.476}, {"measurement": "log2 (TD/Ctrl) IER5L", "setting": "Qvalue 0.037055", "value": 1.227}, {"measurement": "log2 (TD/Ctrl) CORO1A", "setting": "Qvalue 0.03809", "value": 1.157}, {"measurement": "log2 (TD/Ctrl) DMRT1", "setting": "Qvalue 0.038243", "value": 2.578}, {"measurement": "log2 (TD/Ctrl) TMEM200A", "setting": "Qvalue 0.038553", "value": 2.008}, {"measurement": "log2 (TD/Ctrl) BIRC3", "setting": "Qvalue 0.038759", "value": 1.213}, {"measurement": "log2 (TD/Ctrl) GJB7", "setting": "Qvalue 0.040011", "value": "−1.706"}, {"measurement": "log2 (TD/Ctrl) PABIR3", "setting": "Qvalue 0.044085", "value": 1.001}, {"measurement": "log2 (TD/Ctrl) DAB1", "setting": "Qvalue 0.044461", "value": 1.527}, {"measurement": "log2 (TD/Ctrl) CLIC5", "setting": "Qvalue 0.046355", "value": 1.134}, {"measurement": "log2 (TD/Ctrl) LOC124904248", "setting": "Qvalue 0.046402", "value": "−1.239"}, {"measurement": "log2 (TD/Ctrl) FOXD4", "setting": "Qvalue 0.046871", "value": "−1.765"}, {"measurement": "log2 (TD/Ctrl) SNAI2", "setting": "Qvalue 0.046941", "value": 1.1}, {"measurement": "log2 (TD/Ctrl) ANKRD20A1", "setting": "Qvalue 0.047154", "value": 1.015}, {"measurement": "log2 (TD/Ctrl) MVP", "setting": "Qvalue 0.048413", "value": 1.066}, {"measurement": "log2 (TD/Ctrl) SHISA8", "setting": "Qvalue 0.048554", "value": 1.031}, {"measurement": "log2 (TD/Ctrl) TBC1D3C", "setting": "Qvalue 0.04891", "value": "−2.321"}, {"measurement": "log2 (TD/Ctrl) CDH1", "setting": "Qvalue 0.049404", "value": 1.135}, {"measurement": "log2 (TD/Ctrl) ZNF296", "setting": "Qvalue 0.049596", "value": 1.005}, {"measurement": "log2 (TD/Ctrl) IRX4", "setting": "Qvalue 1.00 × 10^−4", "value": 3.763}, {"measurement": "log2 (TD/Ctrl) LYPD6", "setting": "Qvalue 1.04 × 10^−4", "value": "−1.124"}, {"measurement": "log2 (TD/Ctrl) TGFB1", "setting": "Qvalue 1.04 × 10^−9", "value": 1.683}, {"measurement": "log2 (TD/Ctrl) SMOX", "setting": "Qvalue 1.04 × 10^−10", "value": 1.479}, {"measurement": "log2 (TD/Ctrl) GPR3", "setting": "Qvalue 1.05 × 10^−12", "value": 3.013}, {"measurement": "log2 (TD/Ctrl) PMAIP1", "setting": "Qvalue 1.07 × 10^−13", "value": 1.02}, {"measurement": "log2 (TD/Ctrl) CCN1", "setting": "Qvalue 1.09 × 10^−13", "value": 1.83}, {"measurement": "log2 (TD/Ctrl) BAX", "setting": "Qvalue 1.10 × 10^−10", "value": "−1.136"}, {"measurement": "log2 (TD/Ctrl) ACTBL2", "setting": "Qvalue 1.10 × 10^−21", "value": 2.68}, {"measurement": "log2 (TD/Ctrl) CREM", "setting": "Qvalue 1.18 × 10^−18", "value": 1.319}, {"measurement": "log2 (TD/Ctrl) TFPI", "setting": "Qvalue 1.19 × 10^−6", "value": 1.103}, {"measurement": "log2 (TD/Ctrl) CFAP44", "setting": "Qvalue 1.21 × 10^−4", "value": "−1.2179"}, {"measurement": "log2 (TD/Ctrl) SPRY4", "setting": "Qvalue 1.22 × 10^−4", "value": 1.583}, {"measurement": "log2 (TD/Ctrl) GCNT1", "setting": "Qvalue 1.22 × 10^−6", "value": "−1.113"}, {"measurement": "log2 (TD/Ctrl) DUSP1", "setting": "Qvalue 1.23 × 10^−13", "value": 2.837}, {"measurement": "log2 (TD/Ctrl) MAFK", "setting": "Qvalue 1.26 × 10^−13", "value": 1.561}, {"measurement": "log2 (TD/Ctrl) GEM", "setting": "Qvalue 1.30 × 10^−33", "value": 2.896}, {"measurement": "log2 (TD/Ctrl) EML2", "setting": "Qvalue 1.31 × 10^−5", "value": 1.098}, {"measurement": "log2 (TD/Ctrl) ECEL1", "setting": "Qvalue 1.32 × 10^−6", "value": 2.018}, {"measurement": "log2 (TD/Ctrl) NFATC1", "setting": "Qvalue 1.32 × 10^−9", "value": 1.146}, {"measurement": "log2 (TD/Ctrl) LBHD1", "setting": "Qvalue 1.34 × 10^−6", "value": "−1.453"}, {"measurement": "log2 (TD/Ctrl) GNG4", "setting": "Qvalue 1.34 × 10^−10", "value": 1.107}, {"measurement": "log2 (TD/Ctrl) GFPT2", "setting": "Qvalue 1.35 × 10^−4", "value": 1.08}, {"measurement": "log2 (TD/Ctrl) HOXB6", "setting": "Qvalue 1.35 × 10^−4", "value": "−1.274"}, {"measurement": "log2 (TD/Ctrl) VGF", "setting": "Qvalue 1.36 × 10^−15", "value": 2.99}, {"measurement": "log2 (TD/Ctrl) USP4", "setting": "Qvalue 1.38 × 10^−4", "value": 1.002}, {"measurement": "log2 (TD/Ctrl) CASD1", "setting": "Qvalue 1.39 × 10^−4", "value": "−1.007"}, {"measurement": "log2 (TD/Ctrl) SGK1", "setting": "Qvalue 1.39 × 10^−7", "value": 1.322}, {"measurement": "log2 (TD/Ctrl) PHLDA1", "setting": "Qvalue 1.40 × 10^−4", "value": 1.224}, {"measurement": "log2 (TD/Ctrl) NDRG1", "setting": "Qvalue 1.40 × 10^−27", "value": 1.674}, {"measurement": "log2 (TD/Ctrl) EMILIN2", "setting": "Qvalue 1.41 × 10^−13", "value": 1.304}, {"measurement": "log2 (TD/Ctrl) TPM4", "setting": "Qvalue 1.41 × 10^−16", "value": 1.086}, {"measurement": "log2 (TD/Ctrl) FOSB", "setting": "Qvalue 1.44 × 10^−4", "value": 2.796}, {"measurement": "log2 (TD/Ctrl) IER3", "setting": "Qvalue 1.44 × 10^−12", "value": 1.677}, {"measurement": "log2 (TD/Ctrl) AHR", "setting": "Qvalue 1.47 × 10^−8", "value": 1.016}, {"measurement": "log2 (TD/Ctrl) SPINT1", "setting": "Qvalue 1.47 × 10^−8", "value": 1.307}, {"measurement": "log2 (TD/Ctrl) PTP4A1", "setting": "Qvalue 1.47 × 10^−41", "value": 1.5}, {"measurement": "log2 (TD/Ctrl) FOSL2", "setting": "Qvalue 1.49 × 10^−13", "value": 1.385}, {"measurement": "log2 (TD/Ctrl) GADD45A", "setting": "Qvalue 1.52 × 10^−19", "value": 1.573}, {"measurement": "log2 (TD/Ctrl) FOS", "setting": "Qvalue 1.54 × 10^−5", "value": 3.22}, {"measurement": "log2 (TD/Ctrl) SMAD6", "setting": "Qvalue 1.54 × 10^−5", "value": "−1.023"}, {"measurement": "log2 (TD/Ctrl) FADS2", "setting": "Qvalue 1.54 × 10^−10", "value": "−1.136"}, {"measurement": "log2 (TD/Ctrl) DNAJB5", "setting": "Qvalue 1.56 × 10^−4", "value": 1.316}]}]}
